Experimental data from patent US10315992B2, “Tetracyline compounds” (Tetraphase Pharmaceuticals, Inc., priority 2012, dated 2019).
In brackets after ≈: the same amount, converted by molar mass. Like-named read-outs stand apart in the source and are kept apart here.

Tests used:
[1] = test system: Pseudomonas aeruginosa PA669 (2009 tracheal aspirate isolate); test: MIC assay, PA669; format: cell-based; details: control compounds
[2] = test system: Stenotrophomonas maltophilia SM256 (cystic fibrosis isolate, MDR); test: MIC assay, SM256; format: cell-based; details: control compounds
[3] = test system: Streptococcus pneumoniae SP106 (ATCC 49619); test: MIC assay, SP106; format: cell-based; details: ATCC49619, S. pneumoniae ATCC 49619, Table 4, read-out: MIC SP 106 49619
[4] = test system: Streptococcus pneumoniae SP160 (tet(M)); test: MIC assay, SP160; format: cell-based
[5] = test system: Klebsiella pneumoniae KP457 (2009 ESBL+, CTX-M, OXA)
[6] = test system: Pseudomonas aeruginosa PA693 (2009 corneal scraping isolate); test: MIC assay, PA693; format: cell-based; details: control compounds
PA 689 = test: MIC assay, PA689; details: Pseudomonas aeruginosa, read-out: MIC PA 689
Description: (§1) Minimum Inhibitory Concentration (MIC) Assay
(§2) MICs were determined according to the Clinical and Laboratory Standards Institute (CLSI) guidances (e.g., CLSI. Performance standards for antimicrobial susceptibility testing; nineteenth information supplement. CLSI document M100-S19, CLSI, 940 West Valley Road, Suite 1400, Wayne, Pa. 19087-1898, USA, 2009). Briefly, frozen bacterial strains were thawed and subcultured onto Mueller Hinton Broth (MHB) or other appropriate media (Streptococcus requires blood and Haemophilus requires hemin and NAD). Following incubation overnight, the strains were subcultured onto Mueller Hinton Agar and again incubated overnight. […] Isolated colonies were selected to prepare a starting inoculum equivalent to a 0.5 McFarland standard. […] Test compounds were prepared by dilution in sterile water to a final concentration of 5.128 mg/mL. Antibiotics (stored frozen, thawed and used within 3 hours of thawing) and compounds were further diluted to the desired working concentrations.
(§3) The assays were run as follows. Fifty μL of MHB was added to wells 2-12 of a 96-well plate. One hundred μL of appropriately diluted antibiotics was added to well 1. Fifty μL of antibiotics was removed from well 1 and added to well 2 and the contents of well 2 mixed by pipetting up and down five times. Fifty μL of the mixture in well 2 was removed and added to well 3 and mixed as above. Serial dilutions were continued in the same manner through well 12. Fifty μL was removed from well 12 so that all contained 50 μL. Fifty μL of the working inoculum was then added to all test wells. A growth control well was prepared by adding 50 μL of working inoculum and 50 μL of MHB to an empty well. The plates were then incubated at 37° C. overnight, removed from the incubator and each well was read on a plate reading mirror. The lowest concentration (MIC) of test compound that inhibited the growth of the bacteria was recorded.

[7] = test system: Proteus mirabilis PM385 (urine ESBL+ isolate); test: MIC assay, PM385; format: cell-based
[8] = test system: Enterococcus faecalis EF327 (wound isolate, tet(M)); test: MIC assay, EF327; format: cell-based
[9] = test system: Acinetobacter baumannii AB110 (ATCC 19606); test: MIC assay, AB110; format: cell-based; details: ATCC19606, A. baumannii ATCC 19606, Table 4, read-out: MIC AB 110 19606
[10] = test system: Haemophilus influenzae HI262 (tetracycline-resistant, ampicillin-resistant); test: MIC assay, HI262; format: cell-based; details: H. influenzae tetracycline-resistant, Table 5, read-out: MIC HI 262 33929
[11] = test system: Pseudomonas aeruginosa PA1145 (strain used in murine pneumonia model); test: MIC assay, PA1145; format: cell-based; details: control compounds
[12] = test system: Proteus mirabilis PM112 (ATCC 35659); test: MIC assay, PM112; format: cell-based; details: ATCC35659, P. mirabilis ATCC 35659, Table 5, read-out: MIC PM 112 35659
KP 194 7E+05 = test: MIC assay, KP194; details: Table 5
Description: as §1, §2, §3

[13] = test system: Staphylococcus aureus SA158 (tetracycline-resistant tet(K)); test: MIC assay, SA158; format: cell-based
[14] = test system: Enterobacter cloacae EC108 (ATCC 13047); test: MIC assay, EC108; format: cell-based; details: ATCC13047, E. cloacae ATCC 13047, Table 4, read-out: MIC ECI 108 13047
[15] = test system: Escherichia coli EC107 (ATCC 25922); test: MIC assay, EC107; format: cell-based
[16] = test system: Pseudomonas aeruginosa PA111 (ATCC 27853); test: MIC assay, PA111; format: cell-based; details: ATCC27853, P. aeruginosa ATCC 27853, Table 4, read-out: MIC PA 111 27853
[17] = test system: Staphylococcus aureus SA101 (ATCC 29213, MSSA); test: MIC assay, SA101; format: cell-based
[18] = test system: Escherichia coli EC878 (MG1655 tolC::kan); test: microbe, parasite or virus in culture; format: cell-based
[19] = test system: Staphylococcus aureus SA161 (HA-MRSA, tet(M)); test: MIC assay, SA161; format: cell-based; details: S. aureus HA-MRSA, tet(M); Table 5
[20] = test system: Escherichia coli EC155 (tet(A)); test: MIC assay, EC155; format: cell-based
[21] = test system: Enterobacter cloacae EC603 (urine isolate); test: MIC assay, EC603; format: cell-based; details: control compounds
[22] = test system: Streptococcus pyogenes SP312 (2009 clinical isolate, tet(M)); test: MIC assay, SP312; format: cell-based; details: S. pyogenes tet(M)

For `CN(C)c1ccc(O)c2c1C[C@H]1C[C@H]3[C@H](N(C)C)C(O)=C(C(N)=O)C(=O)[C@@]3(O)C(O)=C1C2=O` [Minocycline, minocycline], the MIC ([1]; c4, strain PA669 inferred, read-out: MIC) was 33 mg/L (≈ 72.1 µM), the MIC ([1]; numeric, read-out: MIC PA 669) was 33 mg/L (≈ 72.1 µM) and the MIC ([2]; c9, strain SM256 inferred, read-out: MIC) was 0.5 mg/L (≈ 1.09 µM). The MIC ([2]; numeric, read-out: MIC SM 256) was 0.5 mg/L (≈ 1.09 µM), the MIC [3] was 0.015 mg/L (≈ 0.0328 µM) and the MIC ([4]; S. pneumoniae tet(M), Table 6, read-out: MIC SP 160 tet M) was 2 mg/L (≈ 4.37 µM). For the same compound, the MIC ([4]; control compounds, numeric, read-out: MIC SP 160 tetM) was 2 mg/L (≈ 4.37 µM), the “MIC KP 457” value [5] was 8 mg/L (≈ 17.5 µM) and the “MIC KP 457 CTX- M-15” value [5] was 8 mg/L (≈ 17.5 µM). For the same compound, the “MIC KP 457 CTX-M-15” value [5] was 8 mg/L (≈ 17.5 µM), the MIC ([6]; c5, strain PA693 inferred, read-out: MIC) was 33 mg/L (≈ 72.1 µM) and the MIC ([6]; numeric, read-out: MIC PA 693) was 33 mg/L (≈ 72.1 µM). For the same compound, the MIC (PA 689) was 8 mg/L (≈ 17.5 µM), the MIC ([7]; P. mirabilis ESBL+, Table 6, read-out: MIC PM 385) was 16 mg/L (≈ 35 µM) and the MIC ([7]; control compounds, numeric, read-out: MIC PM 385 CTX-M15) was 16 mg/L (≈ 35 µM). The MIC ([8]; E. faecalis tet(M), Table 6, read-out: MIC EF 327 tet M) was 32 mg/L (≈ 69.9 µM), the MIC ([8]; control compounds, numeric, read-out: MIC EF 327 tetM) was 32 mg/L (≈ 69.9 µM) and the MIC [9] was 0.063 mg/L (≈ 0.138 µM). It also gave an MIC [10] of 1 mg/L (≈ 2.19 µM), an MIC ([11]; c6, strain PA1145 inferred, read-out: MIC) of 33 mg/L (≈ 72.1 µM) and an MIC ([11]; numeric, read-out: MIC PA 1145) of 32 mg/L (≈ 69.9 µM). The MIC [12] was 8 mg/L (≈ 17.5 µM), the “MIC KP 194 7E+05” value (KP 194 7E+05) was 32 μg/mL and the MIC ([13]; S. aureus tet(K), Table 4, read-out: MIC SA 158 tetK) was 0.031 mg/L (≈ 0.0678 µM). The MIC ([13]; S. aureus tet(K), Table 5, read-out: MIC SA 158 tetK) was 0.03 mg/L (≈ 0.0656 µM), the MIC ([13]; S. aureus tet(K), Table 6, read-out: MIC SA 158 tetK) was 0.03 mg/L (≈ 0.0656 µM) and the MIC ([13]; S. aureus tet(K), Table 7, read-out: MIC SA 158 tetK) was 0.03 mg/L (≈ 0.0656 µM). The MIC ([13]; control compounds, numeric, read-out: MIC SA 158 tetK) was 0.03 mg/L (≈ 0.0656 µM), the MIC ([13]; control compounds, read-out: MIC SA 158 tetK) was 0.03 mg/L (≈ 0.0656 µM) and the MIC [14] was 2 mg/L (≈ 4.37 µM). It also gave an MIC ([15]; ATCC25922, E. coli ATCC 25922, Table 6, read-out: MIC EC 107 259 22) of 0.5 mg/L (≈ 1.09 µM), an MIC ([15]; ATCC25922, E. coli ATCC 25922, Table 7, read-out: MIC EC 07 25922) of 0.5 mg/L (≈ 1.09 µM) and an MIC ([15]; ATCC25922, control compounds, numeric, read-out: MIC EC 107 25922) of 0.5 mg/L (≈ 1.09 µM). It also gave an MIC [16] of 16 mg/L (≈ 35 µM), an MIC ([17]; S. aureus ATCC 29213, MSSA, Table 4, read-out: MIC SA 101 29213) of 0.063 mg/L (≈ 0.138 µM) and an MIC ([17]; S. aureus ATCC 29213, MSSA, Table 5, read-out: MIC SA 101 29213) of 0.0625 mg/L (≈ 0.137 µM). For the same compound, the MIC ([17]; S. aureus ATCC 29213, MSSA, Table 6, read-out: MIC SA 101 292 13) was 0.063 mg/L (≈ 0.138 µM), the MIC ([17]; S. aureus ATCC 29213, MSSA, Table 7, read-out: MIC SA 101 29213) was 0.06 mg/L (≈ 0.131 µM) and the MIC ([17]; control compounds, numeric, read-out: MIC SA 101 29213) was 0.06 mg/L (≈ 0.131 µM). The MIC ([17]; control compounds, read-out: MIC SA 101 29213) was 0.06 mg/L (≈ 0.131 µM), the MIC ([18]; MG1655, read-out: MIC EC 878 toIC, E. coli MG1655 tolC::kan, Table 6) was 0.25 mg/L (≈ 0.546 µM) and the MIC ([18]; MG1655, read-out: MIC EC 878 toIC, E. coli MG1655 tolC::kan, Table 7) was 0.25 mg/L (≈ 0.546 µM). The MIC ([18]; MG1655, read-out: MIC EC 878 toIC, control compounds) was 0.25 mg/L (≈ 0.546 µM), the MIC ([18]; MG1655, read-out: MIC EC 878 tolC, control compounds, numeric) was 0.25 mg/L (≈ 0.546 µM) and the “MIC SA 161 tetM” value [19] was 8 mg/L (≈ 17.5 µM). The MIC ([20]; Escherichia coli, E. coli tet(A), Table 7, read-out: MIC EC 155 tetA) was 8 mg/L (≈ 17.5 µM), the “MIC EC 155 tetA” value ([20]; control compounds) was 8 mg/L (≈ 17.5 µM) and the MIC ([21]; c7, strain EC603 inferred, read-out: MIC) was 33 mg/L (≈ 72.1 µM). For the same compound, the MIC ([21]; numeric, read-out: MIC EC 603 tetA) was 33 mg/L (≈ 72.1 µM), the MIC ([22]; Table 5, read-out: MIC SP 312) was 16 mg/L (≈ 35 µM) and the MIC ([22]; Table 6, read-out: MIC SP 312 tet M) was 16 mg/L (≈ 35 µM).
